Assay results from ChEMBL document CHEMBL1201862, “PubChem BioAssay data set” (2004).
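96-well plates; 48 h exposure; 5 concentrations. Endpoints by linear interpolation between flanking doses. Not reached: highest tested concentration assigned. Here, GI50 denotes the concentration required for 50% inhibition of growth.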 Activity calls are given as the source filed them. Cut-off read from the data, not from the text of the source: active = GI50 up to about 1.1 µM and inactive = higher.

Tests used:
Experiment in all cases: NCI-60 cell line screen, 48 h
[1] = tested on: 786-0
[2] = tested on: A498
[3] = tested on: COLO 205
[4] = tested on: HCT-15
[5] = tested on: HOP-62
[6] = tested on: K562
[7] = tested on: KM12
[8] = tested on: MDA-MB-435
[9] = tested on: NCI-H23
[10] = tested on: NCI-H522
[11] = tested on: NCI/ADR-RES
[12] = tested on: PC-3
[13] = tested on: SF-268
[14] = tested on: SK-MEL-28
[15] = tested on: SN12C
[16] = tested on: T47D
[17] = tested on: U-251
[18] = tested on: UACC-257
[19] = tested on: UO-31
[20] = tested on: Malme-3M

For `C=CC(O)C#Cc1cnc(OC)nc1OC` (configuration not stated), the GI50 [1] was 38.6 µM (inactive), the GI50 [2] was 16.3 µM (inactive) and the GI50 [3] was 81.5 µM (inactive). For the same compound, the GI50 [4] was greater than 100 µM, the GI50 [5] was > 100 µM (inactive) and the GI50 [6] was 23.9 µM (inactive). The GI50 [7] was 86.7 µM (inactive), the GI50 [8] was > 100 µM (inactive) and the GI50 [9] was > 100 µM (inactive). For the same compound, the GI50 [10] was 54.2 µM (inactive), the GI50 [11] was > 100 µM (inactive) and the GI50 [12] was > 100 µM (inactive). For the same compound, the GI50 [13] was > 100 µM (inactive), the GI50 [14] was > 100 µM (inactive) and the GI50 [15] was > 100 µM (inactive). The GI50 [16] was > 100 µM (inactive), the GI50 [17] was > 100 µM (inactive) and the GI50 [18] was > 100 µM (inactive). The GI50 [19] was > 100 µM (inactive).
In the case of `CC(C)=CCC[C@@H](C)C1=C(O)C(=O)C(C)=C(N)C1=O`, the GI50 [1] is reported as 33.4 µM (inactive), the GI50 [2] is reported as 39.8 µM (inactive) and the GI50 [3] is reported as 27.9 µM (inactive). The GI50 [4] was 4.85 µM, the GI50 [5] was 23.2 µM (inactive) and the GI50 [6] was 23.2 µM (inactive). For the same compound, the GI50 [7] was 23.3 µM (inactive), the GI50 [8] was 41 µM (inactive) and the GI50 [20] was 14.1 µM (inactive). For the same compound, the GI50 [9] was 27.3 µM (inactive), the GI50 [11] was 3.9 µM (inactive) and the GI50 [12] was 47.8 µM (inactive). For the same compound, the GI50 [13] was 21.5 µM (inactive), the GI50 [14] was 34.8 µM (inactive) and the GI50 [15] was 35.5 µM (inactive). For the same compound, the GI50 [16] was 23.9 µM (inactive), the GI50 [17] was 34.8 µM (inactive) and the GI50 [18] was 38.5 µM (inactive). The GI50 [19] was 11.1 µM (inactive).
For `CC(=O)O[C@@H]1[C@H](OC2CCCCC2(c2ccccc2)c2ccccc2)O[N+]([O-])=CC12CCCCC2` (some centres not stated), the GI50 [1] was 13.4 µM (inactive), the GI50 [2] was 16.3 µM (inactive) and the GI50 [3] was 16.4 µM (inactive). For the same compound, the GI50 [4] was 16 µM, the GI50 [6] was 54.2 µM (inactive) and the GI50 [7] was 17.2 µM (inactive). For the same compound, the GI50 [8] was 15.6 µM (inactive), the GI50 [9] was 10.2 µM (inactive) and the GI50 [10] was 18.6 µM (inactive). The GI50 [11] was 15.9 µM (inactive), the GI50 [12] was 10.8 µM (inactive) and the GI50 [13] was 18.6 µM (inactive). For the same compound, the GI50 [14] was 13.8 µM (inactive), the GI50 [15] was 19.6 µM (inactive) and the GI50 [16] was 18.4 µM (inactive). For the same compound, the GI50 [17] was 17 µM (inactive), the GI50 [18] was 17.1 µM (inactive) and the GI50 [19] was 17.5 µM (inactive).
For `CC(=O)OCC(OC(C)=O)C(OC(C)=O)C(OC(C)=O)C(/C=N\Nc1nc2ccccc2c(=O)[nH]1)OC(C)=O` (configuration not stated), the GI50 [1] was > 100 µM (inactive), the GI50 [3] was > 100 µM (inactive) and the GI50 [4] was greater than 100 µM. For the same compound, the GI50 [5] was > 100 µM (inactive), the GI50 [6] was > 100 µM (inactive) and the GI50 [7] was 23.6 µM (inactive). For the same compound, the GI50 [8] was > 100 µM (inactive), the GI50 [20] was > 100 µM (inactive) and the GI50 [9] was > 100 µM (inactive). For the same compound, the GI50 [10] was > 100 µM (inactive), the GI50 [11] was > 100 µM (inactive) and the GI50 [12] was > 100 µM (inactive). For the same compound, the GI50 [13] was > 100 µM (inactive), the GI50 [14] was > 100 µM (inactive) and the GI50 [15] was > 100 µM (inactive). The GI50 [16] was > 100 µM (inactive), the GI50 [17] was > 100 µM (inactive) and the GI50 [18] was > 100 µM (inactive). The GI50 [19] was > 100 µM (inactive).
`C=CCOC(=O)Cn1cnc2c(N)ncnc21` was tested, and the GI50 [1] was > 100 µM (inactive), the GI50 [2] was > 100 µM (inactive) and the GI50 [3] was > 100 µM (inactive). For the same compound, the GI50 [4] was greater than 100 µM, the GI50 [5] was > 100 µM (inactive) and the GI50 [6] was > 100 µM (inactive). The GI50 [7] was > 100 µM (inactive), the GI50 [8] was > 100 µM (inactive) and the GI50 [20] was > 100 µM (inactive). For the same compound, the GI50 [9] was > 100 µM (inactive), the GI50 [11] was > 100 µM (inactive) and the GI50 [12] was > 100 µM (inactive). For the same compound, the GI50 [13] was > 100 µM (inactive), the GI50 [14] was > 100 µM (inactive) and the GI50 [15] was > 100 µM (inactive). The GI50 [16] was > 100 µM (inactive), the GI50 [17] was > 100 µM (inactive) and the GI50 [18] was > 100 µM (inactive). The GI50 [19] was > 100 µM (inactive).
With `CCOC(=O)C1=C(C)NC(c2ccccc2)=C(C(=O)OCc2ccccc2)C1C#Cc1ccccc1` (configuration not stated) the GI50 [1] was > 100 µM (inactive), the GI50 [2] was > 100 µM (inactive) and the GI50 [3] was > 100 µM (inactive). The GI50 [4] was greater than 100 µM, the GI50 [5] was > 100 µM (inactive) and the GI50 [6] was > 100 µM (inactive). For the same compound, the GI50 [7] was > 100 µM (inactive), the GI50 [8] was > 100 µM (inactive) and the GI50 [20] was > 100 µM (inactive). The GI50 [9] was > 100 µM (inactive), the GI50 [11] was > 100 µM (inactive) and the GI50 [12] was > 100 µM (inactive). The GI50 [13] was > 100 µM (inactive), the GI50 [15] was 12.4 µM (inactive) and the GI50 [16] was > 100 µM (inactive). For the same compound, the GI50 [17] was > 100 µM (inactive), the GI50 [18] was > 100 µM (inactive) and the GI50 [19] was 58.2 µM (inactive).
